Results taken from patent publication US9801840B1, “Pharmaceutical composition and use thereof” (priority 2016, dated 2017).

Columns and labels:
Cytotoxicity assay (MTT) = format: cell-based; settings: human, Huh7 cells (HCC cell line), Huh7, 24 hours
Experimental: (§1) The HCC cell lines: Huh7, HepG2 and Hep3B were obtained from Japanese Collection of Research Bioresources (National Institute of Health Sciences; Japan, JCRB) and maintained in Dulbecco's Modified Eagle's Medium-High Glucose (Invitrogen) medium with 10% fetal bovine serum (FBS), 2 mM L-glutamine (Invitrogen), and 100 μg/mL penicillin-streptomycin (Invitrogen). Cells were cultured in a humidified atmosphere in 5% CO2 at 37° C. A well-known cytotoxicity assays in the art, for example, the assay described by Wang et al. can be performed to study the cytotoxicity of the pharmaceutical composition provided by the present invention. […] The number of viable cells was determined by MTT assay.

Hep3B cell lines [1] = assay: Cytotoxicity assay (MTT); format: cell-based; settings: 24 hours
Experimental: as §1

HepG2 cell lines [2] = assay: Cytotoxicity assay (MTT); format: cell-based; settings: HepG2, 24 hours
Experimental: as §1

Hep3B cell lines [3] = assay: Transwell migration assay; format: cell-based; settings: 1-16 μM, 16 hours
Experimental: (§2) Then, the cells were seeded into Transwell inserts (8 μm pore; BD Biosciences). The mediums were incubated for 16 hours, and the migrated cells were fixed, stained with crystal violet, and quantified.
(§3) Except for the compound represented by formula (1), the pharmaceutical composition can further comprises at least one known anticancer agent. […] The software was used to estimate the combination index (CI) and Fa (fraction affected by drugs) and to interpret the combined effect of drugs. CI<1, CI=1, and CI>1 respectively indicate synergistic, additive, and antagonistic effects.

HepG2 cell lines [4] = assay: Transwell migration assay; format: cell-based; settings: HepG2, 1-16 μM, 16 hours
Experimental: as §2, §3

Huh7 cell lines [5] = assay: Transwell migration assay; format: cell-based
Experimental: as §2, §3

VEGFR2 = assay: Immunoprecipitation and Western blot analysis, Huh7 cell lines; format: cell-based; settings: Huh7, 15 mins treatment, vs control
Experimental: The lysates were then sonicated and centrifuged. The supernatant was kept and incubated with anti-VEGFR1 antibody, anti-VEGFR2 antibody, and anti-VEGFR3 antibody (Santa Cruz Biotechnology, Inc.) overnight at 4° C. The immune-complexes were washed and eluted, and then analyzed by Western blotting.

Src = assay: as above; format: cell-based; settings: Huh7, 15 mins treatment
FAK (Tyr397) = assay: as above; format: cell-based; settings: Huh7, 15 mins treatment
[6] = target: T1, VEGFR2 (kinase insert domain receptor, KDR) (Homo sapiens, UniProt P35968); assay: ADP-Glo kinase activity assay; format: biochemical; settings: 10 μM ATP, read-out: concentration inhibiting VEGFR2 activity by 50%
T1 construct: purchased Promega V2681
Experimental: Briefly, CA was first diluted with a kinase reaction buffer solution at a 1:2 dilution ratio. Three nanograms of kinase insert domain receptor (KDR, #V2681, Promega) were added and incubated for 10 mins. Then, 0.1 μg/μL substrate and 10 μM ATP were added and incubated for 1 hour at room temperature. Next, 25 μL of ADP-Glo reagent was added to the mixture and incubated at room temperature for 40 mins. Finally, 50 μL of a kinase detection reagent was added to introduce luciferase and samples were measured.

cdc42 = assay: Rho GTPase activity assay (GST pull-down, Western blot), Huh7 cell lines; format: cell-based; settings: Huh7, 6 hours
Experimental: Huh7 cell lines were cultured by the method described in Example 2 and treated with 0.1% DMSO (control) or CA for 6 hours and then collected. After the Huh7 cell lines were lysed, the cell lysates (500 μg) were combined with purified GST fusion protein which has conjugated with Rac1, RhoA, or cdc42 binding domain (PAK-PBD for Rac1 and cdc42, Raf-RBD for RhoA) and incubated at 4° C. overnight. The immune-complex was precipitated and then centrifuged at 14,000 rpm for 30 mins. The samples were washed with RIPA buffer solution, boiled with SDS sample buffer solution, and analyzed by Western blot analysis.

Huh7 cell lines [7] = assay: G-actin/F-actin activity assay; format: cell-based; settings: Huh7, 6 hours, vs control
Experimental: Actin activity assay can be conducted by known methods, for example, the method described in Shum et al. (2011). Briefly, Huh7 cell lines were cultured by the method described in Example 2 and treated with 0.1% DMSO (control) or CA for 6 hours and incubated in stabilizing buffer (1% Triton X-100, 1 μg phalloidin, and protease inhibitor cocktail) at room temperature for 5 mins. Cell lysates were collected, followed by centrifugation at 100,000×g at 37° C. for 1 hour. The supernatant was removed and saved as the G-actin fraction. The pellet was washed twice with PBS and dissolved in dissolving buffer solution (1% Triton X-100, 2% SDS, and protease inhibitor cocktail) by sonication, the mixture was put on ice for 1 h, and saved as the F-actin fraction.

Huh7 cell lines [8] = assay: Confocal microscopy analysis of p-FAK (Tyr397) and F-actin; format: cell-based; settings: Huh7, 6 hour
Experimental: Huh7 cell lines cultured by the method described in Example 2 were seeded on a 22×22 cover slip and treated with 0.1% DMSO (control) or CA for 6 hour. The cells were washed, fixed, and permeabilized with 0.25% Triton X-100 for 10 mins. Next, the cover slips were incubated with p-FAK (Tyr397) primary antibody overnight, and then stained with Alexa488 (anti-rabbit) and Alexa568-phallodin (20 mU/mL) for 1 hour in darkness. Finally, the samples were counterstained for nuclei with DAPI (10 ng/mL) for 10 mins. The images were captured and analyzed using the Leica TCS SP5 Spectral Confocal System. The actin filament intensity was measured by ImageJ (NIH) and calculated by the following formula described by Bennett et al. (2013): Corrected total cell fluorescence (CTCF)=Integrated Density−(Area of selected cell×Mean fluorescence of background readings).

Huh7 cell lines [9] = assay: Antitumor response in vivo, Huh7 xenograft; set-up: species or system mice; settings: 5 mg/kg/day intraperitoneal
Experimental: All animal experiments were conducted according to the guidelines approved by the Institutional Animal Care and Use Committees of the College of Medicine, National Taiwan University and National Taiwan Normal University. The study was approved by the Animal Care and Use Committees of the College of Medicine, National Taiwan University and National Taiwan Normal University. Male NOD/SCID mice (4-6 weeks old) (obtained from BioLASCO Taiwan Co., Ltd) were housed into individually-ventilated cages with free access to food and drinking water. […] The tumor volume was calculated by the following equation: tumor volume(mm^3)=(length [mm])×(width [mm])^2×0.5.

p-FAK (Tyr397) = assay: Immunohistochemistry of excised xenograft tumors; format: in vivo; settings: HCC xenograft mice, CA 5 mg/kg/day
Description: (§4) Tumor samples obtained from experiment 4-1 were fixed in 10% […], embedded in paraffin, and sectioned. The tissue sections were then subjected to immunohistochemical staining with the Novolink Polymer Detection System (Leica Biosystems). The sections were stained for p-VEGFR2 (Tyr951, Cell Signaling Technology), Ki-67 and p-FAK (Tyr397) (Santa Cruz Biotechnology), and the nuclei were counterstained with hematoxylin.

p-VEGFR2 (Tyr951) = assay: Immunohistochemistry of excised xenograft tumors; format: in vivo; settings: HCC xenograft mice, CA 5 mg/kg/day
Description: as §4

FAK = settings: xenograft model
Experimental: To study the combinatorial effect of CA and sorafenib, Huh7 cell lines (5×10^6 cells) were suspended in 100 μL of Opti-MEM with matrigel-matrix, and injected subcutaneously into the flanks of each mouse. After one week, the mice were treated with 50 μL DMSO (control) and combined compounds by intraperitoneal injection (n=5 for each group) for 20 days.
At the end of the experiment, the mice were sacrificed. The tumors were excised, weighed, and fixed for further studies.

T1 sequence (P35968 20-1356): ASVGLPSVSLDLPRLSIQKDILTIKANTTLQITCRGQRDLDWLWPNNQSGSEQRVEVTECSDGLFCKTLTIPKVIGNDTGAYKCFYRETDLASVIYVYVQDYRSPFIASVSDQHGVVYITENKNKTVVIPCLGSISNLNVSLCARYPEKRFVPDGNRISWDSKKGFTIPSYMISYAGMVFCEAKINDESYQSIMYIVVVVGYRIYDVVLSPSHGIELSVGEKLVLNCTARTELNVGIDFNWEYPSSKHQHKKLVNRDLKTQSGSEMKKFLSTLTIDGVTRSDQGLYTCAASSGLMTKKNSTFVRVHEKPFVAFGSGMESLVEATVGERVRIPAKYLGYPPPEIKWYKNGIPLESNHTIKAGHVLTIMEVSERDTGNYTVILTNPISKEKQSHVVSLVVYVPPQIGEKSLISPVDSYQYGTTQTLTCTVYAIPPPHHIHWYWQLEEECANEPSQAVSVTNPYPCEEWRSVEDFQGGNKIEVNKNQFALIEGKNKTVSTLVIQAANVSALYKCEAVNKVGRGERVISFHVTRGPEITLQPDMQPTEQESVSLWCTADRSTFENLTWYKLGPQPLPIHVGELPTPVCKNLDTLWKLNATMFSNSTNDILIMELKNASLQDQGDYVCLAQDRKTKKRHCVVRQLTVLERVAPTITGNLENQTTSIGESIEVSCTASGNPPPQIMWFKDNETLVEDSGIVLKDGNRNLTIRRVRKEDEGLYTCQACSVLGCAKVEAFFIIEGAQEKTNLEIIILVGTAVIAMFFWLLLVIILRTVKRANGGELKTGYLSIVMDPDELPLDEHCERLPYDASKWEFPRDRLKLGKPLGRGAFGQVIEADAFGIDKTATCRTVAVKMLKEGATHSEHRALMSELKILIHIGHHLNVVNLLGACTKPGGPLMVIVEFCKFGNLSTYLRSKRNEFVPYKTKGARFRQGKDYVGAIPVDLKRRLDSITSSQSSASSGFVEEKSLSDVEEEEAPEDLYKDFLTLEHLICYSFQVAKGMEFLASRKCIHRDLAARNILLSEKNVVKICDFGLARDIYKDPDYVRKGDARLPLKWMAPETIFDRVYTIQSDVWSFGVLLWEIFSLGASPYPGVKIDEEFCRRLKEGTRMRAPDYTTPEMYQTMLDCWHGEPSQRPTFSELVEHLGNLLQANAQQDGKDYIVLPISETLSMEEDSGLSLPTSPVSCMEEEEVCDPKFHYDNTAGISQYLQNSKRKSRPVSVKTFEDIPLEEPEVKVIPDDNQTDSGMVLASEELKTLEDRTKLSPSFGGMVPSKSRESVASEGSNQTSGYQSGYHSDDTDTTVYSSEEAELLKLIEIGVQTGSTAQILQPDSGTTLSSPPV

Question: With C[C@H]1[C@H](C)CC[C@]2(C(=O)O)CC[C@]3(C)C(=CC[C@@H]4[C@@]5(C)C[C@@H](O)[C@H](O)C(C)(C)[C@@H]5CC[C@]43C)[C@H]12 [CA, corosolic acid] as the compound, how does the IC50 at 24 h (Cytotoxicity assay (MTT)) read?
Answer: 50000 nM

Question: And the cytotoxicity (Hep3B cell lines [1])?
Answer: lower cytotoxicity

Question: And the cytotoxicity (HepG2 cell lines [2])?
Answer: lower cytotoxicity

Question: And the inhibition of migration (Hep3B cell lines [3])?
Answer: effectively inhibited the migration

Question: And the inhibition of migration (HepG2 cell lines [4])?
Answer: effectively inhibited the migration

Question: And the “IC50 cytotoxicity/IC50 migration” value (Huh7 cell lines [5]; HCC cell lines)?
Answer: ≥ 20

Question: What about the inhibition of migration (Huh7 cell lines [5]; Huh7, 1-16 μM, 16 hours) of the same compound?
Answer: effectively inhibited the migration

Question: What about the “phosphorylation level of VEGFR2” value (VEGFR2) of the same compound?
Answer: lower

Question: And the “phosphorylation level of Src” value (Src)?
Answer: down-regulated

Question: And the “phosphorylation level of FAK (Tyr397)” value (FAK (Tyr397))?
Answer: down-regulated

Question: And the IC50 [6]?
Answer: ~950 nM

Question: What about the IC50 (cdc42; Homo sapiens, Huh-7, read-out: concentration reducing the activity of cdc42 by 50%) of the same compound?
Answer: 2000 nM

Question: What about the “activated cdc42” value (cdc42) of the same compound?
Answer: significantly down-regulated

Question: What about the “ratio of F-actin/G-actin (polymer/monomer)” value (Huh7 cell lines [7]) of the same compound?
Answer: reduces

Question: What about the “co-localization of phosphorylation of FAK (Tyr397) and F-actin on the filopodium” value (Huh7 cell lines [8]) of the same compound?
Answer: decreases

Question: And the “reduction in tumor mass as compared with the control group” value (Huh7 cell lines [9]; 21 days)?
Answer: 85%

Question: And the “volumes of the tumor” value (Huh7 cell lines [9]; after 21-day treatment)?
Answer: 63±19 mm^3

Question: What about the “phosphorylation of FAK in tumor (immunohistochemistry)” value (p-FAK (Tyr397)) of the same compound?
Answer: reduced phosphorylation of both VEGFR2 and FAK significantly

Question: What about the “phosphorylation of VEGFR2 in tumor (immunohistochemistry)” value (p-VEGFR2 (Tyr951)) of the same compound?
Answer: reduced phosphorylation of both VEGFR2 and FAK significantly

Question: For CNC(=O)c1cc(Oc2ccc(NC(=O)Nc3ccc(Cl)c(C(F)(F)F)c3)cc2)ccn1 [sorafenib], which “phosphorylation level / activation of FAK kinase in the tumor in the mice” value (FAK) is on record?
Answer: didn't show any inhibitory effect

Question: With C[C@H]1[C@H](C)CC[C@]2(C(=O)O)CC[C@]3(C)C(=CC[C@@H]4[C@@]5(C)CC[C@H](O)C(C)(C)[C@@H]5CC[C@]43C)[C@H]12 [ursolic acid, 3β-hydroxyurs-12-ursen-28-ic acid, reference compound] as the compound, how does the “inhibitory activity to cell migration (FIG. 2D comparison)” value (Huh7 cell lines [5]; Huh7, CA vs sorafenib vs ursolic acid) read?
Answer: did not show significant inhibitory activity
